Laboratory results as given in US20260250318A1, “COMPOSITIONS AND METHODS FOR CROSSING THE BLOOD BRAIN BARRIER” (VOYAGER THERAPEUTICS, INC., priority 2022, published 2026).

Tested on: brains, heart, liver, muscle, and DRG of the NHPs
Experiment: Maturation of TTM-001 and TTM-002 capsids, NGS enrichment in NHP tissues
Format: in vivo
Text: This Example describes maturation of the AAV9 capsid variants, TTM-001 (SEQ ID NO: 981 (amino acid) and 983 (DNA), comprising SEQ ID NO: 941 (encoded by SEQ ID NO: 942)) and TTM-002 (SEQ ID NO: 982 (amino acid) and 984 (DNA), comprising SEQ ID NO: […] (encoded by SEQ ID NO: 944)) in NHPs to further enhance their transduction and biodistribution in the central nervous system as well as other tissues, and evolve the AAV capsid variants to provide further cross-species compatibility. Two approaches were used to mature the TTM-001 and TTM-002 capsid sequences in order to randomize and mutate within and around the peptide insert comprised within loop IV of the capsid variant. […] In the first maturation approach, sets of three contiguous amino acids were randomized across the mutagenesis region in the TTM-001 and TTM-002 sequences, which spanned from position 450 to position 466, numbered according to SEQ ID NO: 981 and 982. In the second maturation approach, mutagenic primers were used to introduce point mutations at a low frequency, scattered across the mutagenesis region in the TTM-001 and TTM-002 sequences ranging from position 449 to position 466, numbered according to SEQ ID NO: 981 and 982. AAV capsid variants arising from each maturation approach for TTM-001 and TTM-002 were pooled together, for subsequent testing and characterization in NHPs.
The library of pooled matured AAV capsid variants generated using the first maturation approach and the second maturation approach for the TTM-001 and TTM-002 AAV capsid variants were injected into two NHPs. […] Following RNA recovery and RT-PCR amplification, a systematic NGS enrichment analysis was performed to calculate the fold enrichment ratio relative to an AAV9 control, and the peptides comprised within the variants were identified.
Following the RNA recovery and NGS analysis from the second maturation approach, approximately 680,000 capsid variants were identified. The 680,000 matured capsid variants were then filtered based on samples with a raw virus count greater than 10 and a coefficient of variance (CV) of less than 1, which was calculated for each peptide across the brain samples taken from the two NHPs. […] Using this filtering criteria, this led to approximately 64,000 matured capsid variants.

[1] = NGS fold-enrichment, DRG, NHP, relative to AAV9
[2] = NGS fold-enrichment, brain, NHP, relative to AAV9
[3] = NGS fold-enrichment, heart, NHP, relative to AAV9
[4] = NGS fold-enrichment, liver DNA, NHP, relative to AAV9
[5] = NGS fold-enrichment, liver RNA, NHP, relative to AAV9
[6] = NGS fold-enrichment, muscle, NHP, relative to AAV9
[7] = NHP DRG, NGS, relative to AAV9 control
[8] = NHP brain, NGS, relative to AAV9 control
[9] = NHP heart, NGS, relative to AAV9 control
[10] = NHP liver DNA, NGS, relative to AAV9 control
[11] = NHP liver RNA, NGS, TTM-001 and TTM-002 matured AAV capsid variants, relative to AAV9 control
[12] = NHP muscle, NGS, relative to AAV9 control

Row | Sequence | Fold Enrichment relative to AAV9, DRG (NHP) [1] [fold] | Fold Enrichment relative to AAV9, Brain (NHP) [2] [fold] | Fold Enrichment relative to AAV9, Heart (NHP) [3] [fold] | Fold Enrichment relative to AAV9, Liver DNA (NHP) [4] [fold] | Fold Enrichment relative to AAV9, Liver RNA (NHP) [5] [fold] | Fold Enrichment relative to AAV9, Muscle (NHP) [6] [fold] | Fold Enrichment relative to AAV9, DRG (NHP) [7] [fold] | Fold Enrichment relative to AAV9, Brain (NHP) [8] [fold] | Fold Enrichment relative to AAV9, Heart (NHP) [9] [fold] | Fold Enrichment relative to AAV9, Liver DNA (NHP) [10] [fold] | Fold Enrichment relative to AAV9, Liver RNA (NHP) [11] [fold] | Fold Enrichment relative to AAV9, Muscle (NHP) [12] [fold]
1 | KTINGSGSPHSKALRHQT | 0.000 | 0.000 | 0.000 | 4.532 | 10.774 | 0.000 |  |  |  |  |  | 
2 | KTINGSGSPHSKALRWQT |  |  |  |  |  |  | 0.000 | 0.000 | 0.000 | 5.252 | 14.118 | 0.000
3 | KTINGSGSPHSKAPRRQT |  |  |  |  |  |  | 0.000 | 0.000 | 0.000 | 3.940 | 21.645 | 0.000
4 | KTINGSGSPHSKAQARKT |  |  |  |  |  |  | 0.000 | 0.000 | 0.000 | 3.644 | 96.557 | 0.000
5 | KTINGSGSPHSKAQCLKT |  |  |  |  |  |  | 0.000 | 0.000 | 0.000 | 1.453 | 49.565 | 0.000
6 | KTINGSGSPHSKAQFCLT | 0.000 | 0.000 | 0.000 | 3.371 | 10.065 | 0.000 |  |  |  |  |  | 
7 | KTINGSGSPHSKAQFILT |  |  |  |  |  |  | 0.000 | 0.000 | 0.000 | 4.208 | 16.650 | 0.000
8 | KTINGSGSPHSKAQKCIT |  |  |  |  |  |  | 0.000 | 0.000 | 0.000 | 1.887 | 69.547 | 0.000
9 | KTINGSGSPHSKAQMQIT |  |  |  |  |  |  | 0.000 | 0.000 | 0.000 | 0.371 | 13.990 | 0.000
10 | KTINGSGSPHSKAQNFKR |  |  |  |  |  |  | 0.000 | 0.000 | 0.000 | 0.964 | 32.291 | 0.000
11 | KTINGSGSPHSKAQRFKT |  |  |  |  |  |  | 0.000 | 0.000 | 0.000 | 0.139 | 30.363 | 0.000
12 | KTINGSGSPHSKAQSAKT |  |  |  |  |  |  | 0.000 | 0.000 | 0.000 | 4.200 | 11.162 | 0.000
13 | KTINGSGSPHSKAQSRKT |  |  |  |  |  |  | 0.000 | 0.000 | 0.000 | 2.715 | 14.589 | 0.000
14 | KTINGSGSPHSKAQTCRT |  |  |  |  |  |  | 0.000 | 0.000 | 0.000 | 6.369 | 26.472 | 0.000
15 | KTINGSGSPHSKAQTHRT |  |  |  |  |  |  | 0.000 | 0.000 | 0.000 | 2.917 | 17.290 | 0.000
16 | KTINGSGSPHSKAQYSRT |  |  |  |  |  |  | 0.000 | 0.000 | 0.000 | 0.956 | 60.119 | 0.000
17 | KTINGSGSPHSKAQYVRT |  |  |  |  |  |  | 0.000 | 0.000 | 0.000 | 3.275 | 12.239 | 0.000
18 | KTINGSGSPHSKARISQT |  |  |  |  |  |  | 0.000 | 0.000 | 0.000 | 1.565 | 12.142 | 0.000
19 | KTINGSGSPHSKARMYQT |  |  |  |  |  |  | 0.000 | 0.000 | 0.000 | 0.313 | 23.424 | 0.000
20 | KTINGSGSPHSKARQRQT |  |  |  |  |  |  | 0.000 | 0.000 | 0.000 | 2.205 | 56.775 | 0.000
21 | KTINGSGSPHSKARWQQT |  |  |  |  |  |  | 0.000 | 0.000 | 0.000 | 2.377 | 45.017 | 0.000
22 | KTINGSGSPHSKCFLQQT |  |  |  |  |  |  | 0.000 | 0.000 | 0.000 | 1.434 | 22.987 | 0.000
23 | KTINGSGSPHSKCSVQQT |  |  |  |  |  |  | 0.000 | 0.000 | 0.000 | 1.465 | 12.246 | 0.000
24 | KTINGSGSPHSKCTSQQT | 0.232 | 0.493 | 1.413 | 5.821 | 10.311 | 2.353 |  |  |  |  |  | 
25 | KTINGSGSPHSKFFIQQT |  |  |  |  |  |  | 0.000 | 0.000 | 0.000 | 6.916 | 63.255 | 0.000
